Assay results: the kinase profiling compilation of Christmann-Franck et al. (2016)

Tests used:
Experiment in all cases: KINOMEscan competition binding
Details in all cases: compound 0.1 µM
EPHA3 (human) = EPHA3 (human) (UniProt P29320)
[1] = test system: EGFR (human), P00533 [T790M]
PLK4 (human) = PLK4 (human) (UniProt O00444)
VRK2 (human) = VRK2 (human) (UniProt Q86Y07)
[2] = test system: KIT (human), P10721 [A829P]
PLK1 (human) = PLK1 (human) (UniProt P53350)
PHKG2 (human) = PHKG2 (human) (UniProt P15735)
ERBB3 (human) = ERBB3 (human) (UniProt P21860)
SRPK1 (human) = SRPK1 (human) (UniProt Q96SB4)
ACVR1 (human) = ACVR1 (human) (UniProt Q04771)
ULK1 (human) = ULK1 (human) (UniProt O75385)
[3] = test system: PIK3CA (human), P42336 [H1047L]
CDK17 (human) = CDK17 (human) (UniProt Q00537)
ERBB2 (human) = ERBB2 (human) (UniProt P04626)
[4] = test system: FGFR3 (human), P22607 [G697C]
ROCK2 (human) = ROCK2 (human) (UniProt O75116)
PRKX (human) = PRKX (human) (UniProt P51817)
PIM1 (human) = PIM1 (human) (UniProt P11309)
TESK1 (human) = TESK1 (human) (UniProt Q15569)
CSNK1G2 (human) = CSNK1G2 (human) (UniProt P78368)
[5] = test system: PIK3CA (human), P42336 [E545K]
TXK (human) = TXK (human) (UniProt P42681)
MAP2K1 (human) = MAP2K1 (human) (UniProt Q02750)
PIP4K2C (human) = PIP4K2C (human) (UniProt Q8TBX8)
FLT1 (human) = FLT1 (human) (UniProt P17948)
MAP3K12 (human) = MAP3K12 (human) (UniProt Q12852)
KDR (human) = KDR (human) (UniProt P35968)
MAPK3 (human) = MAPK3 (human) (UniProt P27361)
CDC42BPA (human) = CDC42BPA (human) (UniProt Q5VT25)
BTK (human) = BTK (human) (UniProt Q06187)
PRKG1 (human) = PRKG1 (human) (UniProt Q13976)
MAP3K4 (human) = MAP3K4 (human) (UniProt Q9Y6R4)
GRK1 (human) = GRK1 (human) (UniProt Q15835)
CHEK1 (human) = CHEK1 (human) (UniProt O14757)
[6] = test system: ABL1 (human), P00519 [F317I]
PDGFRA (human) = PDGFRA (human) (UniProt P16234)
NEK9 (human) = NEK9 (human) (UniProt Q8TD19)
MET (human) = MET (human) (UniProt P08581)
BRAF (human) = BRAF (human) (UniProt P15056)
MAPK6 (human) = MAPK6 (human) (UniProt Q16659)
MAPK13 (human) = MAPK13 (human) (UniProt O15264)

MET (human), sequence (P08581 whole entry, looked up): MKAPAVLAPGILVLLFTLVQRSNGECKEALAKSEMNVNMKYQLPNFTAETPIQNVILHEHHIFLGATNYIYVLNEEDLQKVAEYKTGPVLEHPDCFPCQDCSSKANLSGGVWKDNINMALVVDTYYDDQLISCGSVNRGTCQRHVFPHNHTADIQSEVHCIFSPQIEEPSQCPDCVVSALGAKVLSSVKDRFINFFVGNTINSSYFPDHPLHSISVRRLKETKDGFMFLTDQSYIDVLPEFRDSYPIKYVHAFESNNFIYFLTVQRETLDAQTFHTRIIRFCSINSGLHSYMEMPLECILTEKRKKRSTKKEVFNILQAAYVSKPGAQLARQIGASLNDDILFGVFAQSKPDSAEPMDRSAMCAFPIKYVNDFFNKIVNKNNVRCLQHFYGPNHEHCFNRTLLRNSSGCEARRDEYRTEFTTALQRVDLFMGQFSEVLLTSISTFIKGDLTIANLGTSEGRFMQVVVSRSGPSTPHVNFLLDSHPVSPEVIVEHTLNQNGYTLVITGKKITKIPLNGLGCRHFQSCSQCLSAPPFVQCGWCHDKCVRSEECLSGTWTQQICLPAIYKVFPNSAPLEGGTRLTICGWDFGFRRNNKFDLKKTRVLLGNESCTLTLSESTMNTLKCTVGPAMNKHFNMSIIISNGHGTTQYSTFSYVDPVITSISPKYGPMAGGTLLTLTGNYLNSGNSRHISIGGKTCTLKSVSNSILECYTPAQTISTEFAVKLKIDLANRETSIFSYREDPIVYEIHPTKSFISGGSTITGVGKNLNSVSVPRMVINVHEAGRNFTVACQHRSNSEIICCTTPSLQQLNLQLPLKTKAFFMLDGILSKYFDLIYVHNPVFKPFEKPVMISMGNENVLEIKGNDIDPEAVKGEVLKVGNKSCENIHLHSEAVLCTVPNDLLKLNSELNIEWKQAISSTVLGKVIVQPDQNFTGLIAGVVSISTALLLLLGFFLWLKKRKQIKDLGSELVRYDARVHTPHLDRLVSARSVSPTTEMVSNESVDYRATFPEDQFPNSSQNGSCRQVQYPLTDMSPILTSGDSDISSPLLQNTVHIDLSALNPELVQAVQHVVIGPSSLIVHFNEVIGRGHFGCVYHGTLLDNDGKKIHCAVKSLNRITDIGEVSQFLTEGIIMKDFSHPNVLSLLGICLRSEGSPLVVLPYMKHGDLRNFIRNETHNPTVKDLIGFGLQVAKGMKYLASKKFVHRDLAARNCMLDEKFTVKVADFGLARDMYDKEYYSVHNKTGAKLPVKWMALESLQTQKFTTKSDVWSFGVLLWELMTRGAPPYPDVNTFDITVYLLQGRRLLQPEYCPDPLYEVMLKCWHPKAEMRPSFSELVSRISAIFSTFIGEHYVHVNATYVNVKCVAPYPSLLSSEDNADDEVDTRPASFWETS
PRKG1 (human), sequence (Q13976 whole entry, looked up): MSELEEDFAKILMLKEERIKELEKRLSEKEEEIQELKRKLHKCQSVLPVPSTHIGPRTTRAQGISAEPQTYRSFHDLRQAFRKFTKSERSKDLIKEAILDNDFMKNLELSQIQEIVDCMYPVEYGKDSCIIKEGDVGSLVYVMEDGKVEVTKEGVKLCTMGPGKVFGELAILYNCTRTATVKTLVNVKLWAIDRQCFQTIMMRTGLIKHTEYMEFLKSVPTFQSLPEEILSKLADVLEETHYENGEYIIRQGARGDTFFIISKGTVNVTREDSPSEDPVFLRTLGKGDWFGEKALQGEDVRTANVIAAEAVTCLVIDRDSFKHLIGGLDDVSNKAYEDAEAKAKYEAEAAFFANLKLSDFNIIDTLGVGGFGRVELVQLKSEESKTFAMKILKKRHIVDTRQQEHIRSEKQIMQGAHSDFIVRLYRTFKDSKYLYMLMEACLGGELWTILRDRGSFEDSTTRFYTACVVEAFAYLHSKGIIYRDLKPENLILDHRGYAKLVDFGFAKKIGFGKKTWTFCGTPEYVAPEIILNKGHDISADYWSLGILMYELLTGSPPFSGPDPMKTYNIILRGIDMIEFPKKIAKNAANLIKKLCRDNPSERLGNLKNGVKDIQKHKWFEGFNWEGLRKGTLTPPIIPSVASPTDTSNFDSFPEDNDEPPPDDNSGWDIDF
MAP3K12 (human), sequence (Q12852 whole entry, looked up): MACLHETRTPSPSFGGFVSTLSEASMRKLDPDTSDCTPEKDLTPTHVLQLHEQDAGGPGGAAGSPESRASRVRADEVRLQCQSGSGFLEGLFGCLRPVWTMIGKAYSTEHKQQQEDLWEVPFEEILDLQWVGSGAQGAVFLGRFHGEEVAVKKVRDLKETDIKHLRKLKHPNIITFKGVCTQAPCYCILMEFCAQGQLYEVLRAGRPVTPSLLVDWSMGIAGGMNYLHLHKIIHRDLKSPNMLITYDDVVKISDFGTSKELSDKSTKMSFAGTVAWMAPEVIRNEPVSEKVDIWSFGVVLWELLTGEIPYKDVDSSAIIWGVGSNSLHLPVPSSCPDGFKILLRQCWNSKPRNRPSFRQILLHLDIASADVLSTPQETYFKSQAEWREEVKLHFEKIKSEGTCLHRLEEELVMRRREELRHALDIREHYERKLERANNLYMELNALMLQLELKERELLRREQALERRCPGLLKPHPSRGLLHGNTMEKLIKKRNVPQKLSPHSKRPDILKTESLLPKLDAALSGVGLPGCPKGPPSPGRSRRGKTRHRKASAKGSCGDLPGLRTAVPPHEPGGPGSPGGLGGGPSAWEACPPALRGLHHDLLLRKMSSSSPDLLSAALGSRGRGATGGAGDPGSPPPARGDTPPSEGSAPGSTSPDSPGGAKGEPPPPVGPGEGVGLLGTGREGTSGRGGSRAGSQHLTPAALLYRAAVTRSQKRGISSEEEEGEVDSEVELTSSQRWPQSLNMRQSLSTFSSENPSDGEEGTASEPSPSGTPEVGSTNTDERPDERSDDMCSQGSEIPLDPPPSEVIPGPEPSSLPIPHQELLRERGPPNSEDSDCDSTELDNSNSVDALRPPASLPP
PDGFRA (human), sequence (P16234 whole entry, looked up): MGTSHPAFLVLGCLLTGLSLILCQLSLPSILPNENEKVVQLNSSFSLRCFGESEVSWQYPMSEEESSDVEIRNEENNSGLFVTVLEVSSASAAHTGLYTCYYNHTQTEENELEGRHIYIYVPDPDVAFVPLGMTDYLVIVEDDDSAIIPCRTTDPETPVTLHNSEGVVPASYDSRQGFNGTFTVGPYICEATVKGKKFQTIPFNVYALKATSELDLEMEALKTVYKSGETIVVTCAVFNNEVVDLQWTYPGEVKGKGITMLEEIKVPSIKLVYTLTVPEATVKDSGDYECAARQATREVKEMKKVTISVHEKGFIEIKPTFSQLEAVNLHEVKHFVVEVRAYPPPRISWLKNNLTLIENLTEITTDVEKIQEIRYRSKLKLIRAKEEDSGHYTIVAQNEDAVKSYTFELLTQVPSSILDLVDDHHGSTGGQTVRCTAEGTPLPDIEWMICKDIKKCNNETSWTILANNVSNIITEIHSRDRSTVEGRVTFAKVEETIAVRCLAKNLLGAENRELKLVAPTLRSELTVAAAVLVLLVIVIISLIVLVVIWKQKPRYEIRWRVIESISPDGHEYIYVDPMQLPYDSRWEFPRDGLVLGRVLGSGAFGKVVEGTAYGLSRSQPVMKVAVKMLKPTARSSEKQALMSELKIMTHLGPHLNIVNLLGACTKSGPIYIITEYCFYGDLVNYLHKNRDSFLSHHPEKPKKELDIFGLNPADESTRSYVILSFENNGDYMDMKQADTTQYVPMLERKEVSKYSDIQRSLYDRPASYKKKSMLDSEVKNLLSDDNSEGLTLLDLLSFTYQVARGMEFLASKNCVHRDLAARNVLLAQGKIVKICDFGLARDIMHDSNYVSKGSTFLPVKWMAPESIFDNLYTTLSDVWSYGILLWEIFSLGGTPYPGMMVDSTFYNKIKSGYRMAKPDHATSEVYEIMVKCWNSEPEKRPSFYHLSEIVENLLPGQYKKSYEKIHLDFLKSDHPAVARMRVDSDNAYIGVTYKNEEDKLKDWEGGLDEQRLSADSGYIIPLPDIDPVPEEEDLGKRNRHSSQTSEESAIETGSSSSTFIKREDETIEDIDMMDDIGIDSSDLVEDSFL
FGFR3 (human), P22607 [G697C], sequence (P22607 whole entry G697C, looked up): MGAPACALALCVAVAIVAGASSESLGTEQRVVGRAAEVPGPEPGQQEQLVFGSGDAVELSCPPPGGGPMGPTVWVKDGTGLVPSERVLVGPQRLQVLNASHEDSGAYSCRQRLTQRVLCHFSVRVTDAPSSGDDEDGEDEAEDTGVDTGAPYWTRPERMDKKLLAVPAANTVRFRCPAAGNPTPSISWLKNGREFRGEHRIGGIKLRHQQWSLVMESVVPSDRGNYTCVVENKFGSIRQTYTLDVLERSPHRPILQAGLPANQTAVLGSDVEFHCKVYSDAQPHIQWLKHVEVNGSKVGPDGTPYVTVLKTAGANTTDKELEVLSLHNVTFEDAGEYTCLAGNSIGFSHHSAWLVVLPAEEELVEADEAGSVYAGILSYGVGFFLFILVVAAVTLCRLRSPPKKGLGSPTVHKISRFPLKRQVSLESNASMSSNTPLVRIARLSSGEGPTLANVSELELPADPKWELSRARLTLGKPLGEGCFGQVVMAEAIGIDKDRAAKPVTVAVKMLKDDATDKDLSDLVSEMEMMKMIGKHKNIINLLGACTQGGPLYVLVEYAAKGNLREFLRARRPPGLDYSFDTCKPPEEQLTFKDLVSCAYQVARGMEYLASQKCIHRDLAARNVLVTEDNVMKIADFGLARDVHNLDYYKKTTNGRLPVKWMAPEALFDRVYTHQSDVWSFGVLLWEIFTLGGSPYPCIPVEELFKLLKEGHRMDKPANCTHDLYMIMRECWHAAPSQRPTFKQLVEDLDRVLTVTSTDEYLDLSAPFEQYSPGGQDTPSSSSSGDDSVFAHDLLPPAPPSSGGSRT

For `CCc1ccc(C(=O)Nc2cc(CN3CCN(C)CC3)cc(C(F)(F)F)c2)cc1C#Cc1cnc2ccnn2c1`, the kinase still bound, per cent of control (EPHA3 (human)) was 47%, the kinase still bound, per cent of control [1] was 100% and the kinase still bound, per cent of control (PLK4 (human)) was 100%. It also gave a kinase still bound, per cent of control (VRK2 (human)) of 100%, a kinase still bound, per cent of control [2] of 69% and a kinase still bound, per cent of control (PLK1 (human)) of 80%. For the same compound, the kinase still bound, per cent of control (PHKG2 (human)) was 66%, the kinase still bound, per cent of control (ERBB3 (human)) was 86% and the kinase still bound, per cent of control (SRPK1 (human)) was 100%. For the same compound, the kinase still bound, per cent of control (ACVR1 (human)) was 84%, the kinase still bound, per cent of control (ULK1 (human)) was 100% and the kinase still bound, per cent of control [3] was 100%. For the same compound, the kinase still bound, per cent of control (CDK17 (human)) was 100%, the kinase still bound, per cent of control (ERBB2 (human)) was 61% and the kinase still bound, per cent of control [4] was 90%. It also gave a kinase still bound, per cent of control (ROCK2 (human)) of 100%, a kinase still bound, per cent of control (PRKX (human)) of 100% and a kinase still bound, per cent of control (PIM1 (human)) of 80%. For the same compound, the kinase still bound, per cent of control (TESK1 (human)) was 73%, the kinase still bound, per cent of control (CSNK1G2 (human)) was 100% and the kinase still bound, per cent of control [5] was 100%. It also gave a kinase still bound, per cent of control (TXK (human)) of 79%, a kinase still bound, per cent of control (MAP2K1 (human)) of 100% and a kinase still bound, per cent of control (PIP4K2C (human)) of 100%. The kinase still bound, per cent of control (FLT1 (human)) was 84%, the kinase still bound, per cent of control (MAP3K12 (human)) was 81% and the kinase still bound, per cent of control (KDR (human)) was 100%. The kinase still bound, per cent of control (MAPK3 (human)) was 100%, the kinase still bound, per cent of control (CDC42BPA (human)) was 84% and the kinase still bound, per cent of control (BTK (human)) was 100%. It also gave a kinase still bound, per cent of control (PRKG1 (human)) of 99%, a kinase still bound, per cent of control (MAP3K4 (human)) of 100% and a kinase still bound, per cent of control (GRK1 (human)) of 100%. It also gave a kinase still bound, per cent of control (CHEK1 (human)) of 100%, a kinase still bound, per cent of control [6] of 83% and a kinase still bound, per cent of control (PDGFRA (human)) of 79%. It also gave a kinase still bound, per cent of control (NEK9 (human)) of 100%, a kinase still bound, per cent of control (MET (human)) of 100% and a kinase still bound, per cent of control (BRAF (human)) of 53%. For the same compound, the kinase still bound, per cent of control (MAPK6 (human)) was 98% and the kinase still bound, per cent of control (MAPK13 (human)) was 69%.
